Experimental findings from US6713511B1, “Fatty acid derivatives” (priority 1998, dated 2004) are described below.

What all share (format): in vivo, rat
Series [1] has as its system rats with unilateral caudate nucleus (striatum) lesion. The text has this: One of the major behavioral methods to measure the increase in dopamine activity in the brain is rotational behavior. Dopamine is the neurotransmitter in the striatum. The striatum controls motor movements and motor integration. In the brain there are two striata, in the right and left hemispheres, respectively. Unilateral ablation of a striatum will result in walking in circles, as the intact striatum is still functioning; Ungerstadt, U. et al., Brain Res., 1970, 24: 485-492, created a lesion in one striatum and measured the effect on rotational behavior. Since then, this technique has been used to screen molecules, such as stimulants or potential anti-Parkinson drugs, which induce increase in dopaminergic activity.
Groups of 6 male Sprague-Dawley rats (Charles River Laboratories, Wilmington, Mass.) weighing 100-120 g, were housed 6 per cage in a well-ventilated and air-conditioned room of ambient temperature (22±2° C.) and relative humidity 45%. The rats had access to food (Big Red Laboratory Chow, Agway Inc., Syracuse, N.Y.) and water ad libitum. Light (“Vita Light”, Duro Test Corp., North Bergen, N.J.) was provided between 9 am and 9 pm.
All surgery was performed under anesthesia (sodium pentobarbital, 50 mg/ml, as required). The rats were placed in a Kopf stereotaxic instrument (model #900). Unilateral anodal electrolytic lesions were made with constant current supply (lesion-producing device #58040, Stoelting, Chicago, Ill.). Current (2.0 mV for 10 seconds) was passed through stainless steel insulated wire pe 32, 0.008 inches diameter (“Formax”, Stoelting, Chicago, Ill.), bared only at the tip. […]
Rotational behavior was tested in a rotameter, modified from the design of Ungerstedt et al., 1970. […] The potentiometer (preamplifier 8805 A) measured and recorded the changes in the amount of current which passed through it, resulting from the rotational movements of the rats. […]
Each rat was placed in the rotameter and treated with an i.p. injection of saline or (I) (10 mg/kg) as prepared above. […] The frequency of turning was measured between 30-40 minutes post-injection. […]

Series [2] deals with rats challenged with Ro4-1284. Briefly: Ro4-1284-induced blephrospasm model. The text has this: This is an involuntary spasm of the orbicular muscles of the eye, causing forceful closure of the eyes. Symptomatically there is a significant increase in the rate of eyelid closures/min. This phenomenon is regarded as a type of dystonia, a decrease in the brain dopamine level being the etiology of this syndrome. Ro4-1284 is a powerful dopamine-depleting agent. In saline-treated animals, Ro4-1284 is able to induce an animal model of benign essential blephrospasm. Groups of rats similar to those described above were treated daily for 14 days with 25 mg/kg (II), i.p., and then were challenged with a dose of 40 mg/kg Ro4-1284, i.p. The results of this test were shown in the following Table.

The subject of series [3] is rats with unilateral caudate nucleus (striatum) lesion. Briefly: Rotational behavior in rats with unilateral striatum lesion, testing of (II). Here is the method: Three groups of 12 male Sprague-Dawley rats (Charles River Laboratories, Wilmington, Mass.) weighing 100-150 g, were housed 6 per cage in a well-ventilated and air-conditioned room of ambient temperature (22±2° C.) and relative humidity 45%. The rats had access to food (Big Red Laboratory Chow, Agway Inc., Syracuse, N.Y.) and water ad libitum. Light (“Vita Light”, Duro Test Corp., North Bergen, N.J.) was provided between 9 am and 9 pm. These groups were used for rotational study, the dosage of (II) being 100 mg/kg, i.p.
One group served as a control group (no treatment), a second group was a sham operated group, and a third group was the operated group. All surgery was performed under anesthesia (sodium pentobarbital, 50 mg/ml, as required). The rats were placed in a Kopf stereotaxic instrument (model #900). Unilateral anodal electrolytic lesions were made with constant current supply (lesion-producing device #58040, Stoelting, Chicago, Ill.). Current (2.0 mV for 10 seconds) was passed through stainless steel insulated wire pc 32, 0.008 inches diameter (“Formax”, Stoelting, Chicago, Ill.), bared only at the tip. The coordinates (modified from Konig and Klippel, 1963) for caudate nucleus lesion were: A 8.5, L 2.2, V+1.8. The lesions were made in the left side of the brain. Sham operated animals were treated as lesioned animals, i.e. they were placed in the stereotaxic instrument and an electrode was placed in the brain, but without passing electric current therethrough. After surgery, each rat was placed in an individual cage. Tests were made at day 10 after surgery. At the end of the experiment, each rat was given an overdose of pentobarbital and perfused with saline, followed by 10% formalin. Brains were removed and serial coronal slices were made at 40 micra, using a freezing microtome. Representative slides were stained with Cresyl Violet for verification of the lesion.
Details of the procedure with regard to determination of rotational behavior were substantially as described above for testing (I).

Where [4] appears, read: lesioned rats, 100 mg/kg i.p., day 10 after surgery.

SMILES strings stand for the structures. Like-named read-outs stand apart in the source and are kept apart here.

For `CC/C=C\C/C=C\C/C=C\CCCCCCCC(=O)N[C@@H](Cc1ccc(O)cc1)C(=O)O` [(I), N-(α-linolenoyl)tyrosine], the “rate of rotational motion” value in series [1] (lesioned rats, 10 mg/kg i.p., 30-40 minutes post-injection, day 4 after surgery, increased from 4 cycles/minute) is 40 cycles/minute. For the same compound, the “crossing of the blood-brain barrier” value in series [1] (rat, in vivo) is recorded as “cross the blood-brain barrier”. Further, the “abnormal behavior (stereotype)” value in series [1] (rat, in vivo, ip, 10 mg/kg) was “not found”.
Consider `CCC1(O)CC2c3cc(OC)c(OC)cc3CCN2CC1CC(C)C` (centres unmarked) [Ro4-1284, reference compound], for which, in series [2] (Ro4-1284 40 mg/kg i.p. alone, 30 minutes after treatment with Ro4-1284), the “rate of eyelid blinking/min.” value turned out to be 19.08 ± 3.4 min⁻¹.
With `CC/C=C\C/C=C\C/C=C\CCCCCCCC(=O)N[C@@H](Cc1ccc(O)cc1)C(=O)OC` [(II), N-β-linolenyltyrosine Methyl Ester], the “crossing of the blood-brain barrier” value in series [3] (conclusion drawn from the behavioral testing) is on record as “cross the blood-brain barrier”. In series [3] (setting [4]), the “% L” value was determined as 98%, the “% R” value came out at 2%, the “L (turns to the left)” value worked out at 98 and the “L + R” value was determined as 100. For the same compound, the “R (turns to the right)” value in series [3] (setting [4]) was found to be 2. The “rate of eyelid blinking/min.” value in series [2] (25 mg/kg (II) i.p. daily for 14 days, then Ro4-1284 40 mg/kg i.p., 30 minutes after Ro4-1284, p < 0.001) was 5.00 ± 1.95 min⁻¹.
